In patent US20220009906A1, “ISOINDOLIN-1-ONE DERIVATIVES USEFUL AS GRK2 INHIBITORS” (priority 2020, published 2022):
pIC50: −log10 of the molar value.

What follows are compounds tested against T1, GRK2 (Homo sapiens, UniProt P25098) (assay: hGRK2 LANCE Ultra In Vitro Assay). Settings: not given.
T1 sequence (P25098 1-689): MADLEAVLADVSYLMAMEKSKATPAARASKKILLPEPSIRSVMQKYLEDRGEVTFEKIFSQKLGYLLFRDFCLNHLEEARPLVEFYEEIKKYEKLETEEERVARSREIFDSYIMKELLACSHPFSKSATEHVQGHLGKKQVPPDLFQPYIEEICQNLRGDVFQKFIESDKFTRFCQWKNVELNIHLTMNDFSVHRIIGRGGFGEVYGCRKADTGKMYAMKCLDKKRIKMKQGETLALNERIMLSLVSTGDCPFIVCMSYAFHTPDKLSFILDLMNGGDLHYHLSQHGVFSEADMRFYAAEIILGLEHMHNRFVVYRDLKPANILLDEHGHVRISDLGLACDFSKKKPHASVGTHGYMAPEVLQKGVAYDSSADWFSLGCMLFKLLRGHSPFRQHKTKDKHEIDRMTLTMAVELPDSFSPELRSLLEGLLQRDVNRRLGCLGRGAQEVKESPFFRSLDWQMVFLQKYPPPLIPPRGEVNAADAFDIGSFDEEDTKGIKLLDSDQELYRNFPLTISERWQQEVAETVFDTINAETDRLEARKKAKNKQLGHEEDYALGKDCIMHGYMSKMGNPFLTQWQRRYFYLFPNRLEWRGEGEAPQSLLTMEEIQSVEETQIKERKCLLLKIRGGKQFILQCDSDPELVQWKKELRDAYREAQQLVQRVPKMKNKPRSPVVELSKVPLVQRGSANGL
Type: biochemical
Procedure: hGRK2 LANCE Ultra In Vitro Assay
G-protein coupled receptor kinases (GR Kinases) desensitize activated G-protein coupled receptors (GPCRs), by phosphorylation of cytoplasmic loops or carboxyl-terminal tails of GPCRs. GRK2 is one of the 6 different GR kinases and is implicated in heart failure and diabetes.
This assay is sensitive and requires as low as 10 nM enzyme, in a total volume of 10 μL. In addition, the ATP concentration can be varied over a broad range, without interfering with the assay or changing the assay condition. […] Testing inhibitors routinely at both high and low ATP concentrations also enables identification of potential non-ATP competitive inhibitors.
Paroxetine was used as the reference compound in this assay.
Test compounds were dissolved in DMSO at 1 mM and were 3-fold serial diluted. The compound DMSO solutions were then added (100 nL) into a plate well using an acoustic dispenser. To each well was then added 20 nM GRK2 (5 μL) in assay buffer (20 mM HEPES, pH 7.5, 10 mM MgCl2, 0.001% Tween-20®). The plate was sealed and centrifuged at 1000 rpm for 1 min. The plate and wells containing a mixture of GRK2 and test compound were incubated at ambient temperature for 30 min (prior to initializing the enzymatic reaction).
Enzyme reactions were initiated by the addition of 4.9 μL Substrates/Eu-Ab mix to each well. […] Final concentrations of reagents in the assays were as follows: 20 mM HEPES, pH 7.5; 10 mM MgCl2; 0.001% Tween-20® (w/v); 30 or 600 μM ATP; 200 nM ULight-peptide; 4 nM Eu-Ab; 10 nM GRK2; and 1% DMSO.
The plates were sealed and centrifuged at 1000 rpm for 1 min. For reactions at low ATP concentration (30 μM), reaction mixtures were incubated at ambient temperature for 120 min. For reactions at high ATP concentration (600 μM), reaction mixtures were incubated at ambient temperature for 60 min.
The enzyme reactions were quenched by addition of 10 μL of 12 mM EDTA in 1× LANCE detection solution to each well. The plates were then incubated at ambient temperature for 30 min. Time-resolved fluorescence signal of reactions were read on an EnVision or PHERAstar plate reader with the following parameters: Excitation wavelength=337 nm; emission wavelength (donor)=620 nm; emission wavelength (acceptor)=665 nm.
The raw HTRF data were converted to % active as follows:
% active=(sample−NC)/(PC−NC)*100
where NC is the mean of negative control (reactions without GRK2), and PC is the mean of positive control (reactions with GRK2 but without inhibitor). IC50 values were determined from a 4-parameter fit, using the following equation:
Y=Bottom+(Top−Bottom)/(1+10^((Log IC50−X)*Hill slope))
where X=log10 of the compound concentration.
Work on `COc1cccc(CN2C(=O)c3cc(-c4cn[nH]c4)ccc3C23CCCC3C(=O)O)c1` (centres unmarked) [Compound 110, 2′-(3-methoxybenzyl)-3′-oxo-5′-(1H-pyrazol-4-yl)spiro[cyclopentane-1,1′-isoindoline]-2-carboxylic acid] yielded a pIC50 of 6.51.

Same assay, conditions: Biological Example 1 GRK2 Lancer IC50 (μM), 10 nM GRK2; 30 or 600 μM ATP (not stated which); multiple measurements listed individually
For `COc1cccc([C@@H](C)N2C(=O)c3cc(-c4cn[nH]c4)ccc3C23CCCC3)c1` [Compound 122, (R)-2′-(1-(3-methoxyphenyl)ethyl)-5′-(1H-pyrazol-4-yl)spiro[cyclopentane-1,1′-isoindolin]-3′-one], the IC50 was 1.18 µM. `O=C1c2cc(-c3cn[nH]c3)ccc2CN1Cc1cccc(Oc2ccccc2)c1` [Compound 103] gave an IC50 of 0.033 µM. Work on `COc1cccc(C(C(=O)O)N2Cc3ccc(-c4cn[nH]c4)cc3C2=O)c1` (centres unmarked) [Compound 71] yielded an IC50 of 0.815 µM. For `COc1cccc(C(CO)N2Cc3ccc(-c4cccnc4)cc3C2=O)c1` (centres unmarked) [Compound 83, 2-(2-hydroxy-1-(3-methoxyphenyl)ethyl)-6-(pyridin-3-yl)isoindolin-1-one], the IC50 was 0.024 µM. In the case of `CCOc1cccc(CN2C(=O)c3cc(-c4cn[nH]c4)ccc3C2CC#N)c1` (centres unmarked) [Compound 65, 2-(2-(3-ethoxybenzyl)-3-oxo-5-(1H-pyrazol-4-yl)isoindolin-1-yl)acetonitrile], the IC50 was 0.039 µM. `COc1cccc([C@@H](C)N2Cc3ccc(-n4cn[nH]c4=O)cc3C2=O)c1` [Compound 40, (R)-2-(1-(3-methoxyphenyl)ethyl)-6-(5-oxo-1,5-dihydro-4H-1,2,4-triazol-4-yl)isoindolin-1-one] showed an IC50 of 0.115 µM. `COc1cccc(C(CO)N2C(=O)c3cc(-c4cn[nH]c4)ccc3C23CCCC3)c1` (centres unmarked) [Compound 79, 2′-(2-hydroxy-1-(3-methoxyphenyl)ethyl)-5′-(1H-pyrazol-4-yl)spiro[cyclopentane-1,1′-isoindolin]-3′-one] was tested, and the IC50 was 0.03 µM. In the case of `C[C@H](c1cccc(C(=O)Nc2ccc(F)c(F)c2)c1)N1Cc2ccc(-c3cn[nH]c3)cc2C1=O` [Compound 32], the IC50 was 0.261 µM. `COc1cccc(CN2C(=O)c3cc(-c4ccnc(N)n4)ccc3C2CC#N)c1` (centres unmarked) [Compound 33] gave an IC50 of 0.098 µM. In the case of `COc1cccc([C@@H](C)N2Cc3c(cc(-c4cn[nH]c4)cc3-c3cncc(F)c3)C2=O)c1` [Compound 120, (R)-4-(5-fluoropyridin-3-yl)-2-(1-(3-methoxyphenyl)ethyl)-6-(1H-pyrazol-4-yl)isoindolin-1-one], the IC50 was 0.009 µM. `CNC(=O)c1nccc(-c2ccc3c(c2)C(=O)N(Cc2ccc(OC)cc2)C3)n1` [Compound 47, 4-(2-(4-methoxybenzyl)-3-oxoisoindolin-5-yl)-N-methylpyrimidine-2-carboxamide] was tested, and the IC50 was ~10 µM. For `COc1cccc([C@@H](C)N2Cc3c(cc(-c4cn[nH]c4)cc3-c3ccc(O)cc3)C2=O)c1` [Compound 129, (R)-4-(4-hydroxyphenyl)-2-(1-(3-methoxyphenyl)ethyl)-6-(1H-pyrazol-4-yl)isoindolin-1-one], the IC50 was 0.011 µM. `COc1cccc(C(COCC(=O)O)N2Cc3ccc(-c4cn[nH]c4)cc3C2=O)c1` (centres unmarked) [Compound 60, 2-(2-(3-methoxyphenyl)-2-(1-oxo-6-(1H-pyrazol-4-yl)isoindolin-2-yl)ethoxy)acetic acid] gave an IC50 of 0.017 µM. `COc1cccc(CN2Cc3cc(F)c(-c4ccnc(N)n4)cc3C2=O)c1` [Compound 36] was tested, and the IC50 was 0.241 µM. For `COc1cccc(CN2C(=O)c3cc(-c4cn[nH]c4)ccc3C23CCC(C(=O)O)C3)c1` (centres unmarked) [Compound 107, 2′-(3-methoxybenzyl)-3′-oxo-5′-(1H-pyrazol-4-yl)spiro[cyclopentane-1,1′-isoindoline]-3-carboxylic acid], the IC50 was 0.005 µM. Work on `O=C1c2cc(-c3cn[nH]c3)ccc2CN1Cc1cccc(-n2cccn2)c1` [Compound 119] yielded an IC50 of 0.113 µM. `CC(=O)Oc1cccc(CN2Cc3ccc(-c4cn[nH]c4)cc3C2=O)c1` [Compound 136] was tested, and the IC50 was 0.014 µM. `COc1cncc(-c2cc(-c3cn[nH]c3)cc3c2CN([C@H](C)c2cccc(OC)c2)C3=O)c1` [Compound 126, (R)-2-(1-(3-methoxyphenyl)ethyl)-4-(5-methoxypyridin-3-yl)-6-(1H-pyrazol-4-yl)isoindolin-1-one] gave an IC50 of 0.024 µM. For `COc1cccc([C@@H](C)N2C(=O)c3cc(-c4cn[nH]c4)ccc3C2CCO)c1` (stereo partly drawn) [Compound 49, 3-(2-hydroxyethyl)-2-((R)-1-(3-methoxyphenyl)ethyl)-6-(1H-pyrazol-4-yl)isoindolin-1-one], the IC50 was < 0.005 µM. For `COc1cccc(C(CO)N2Cc3c(cc(-c4cn[nH]c4)cc3-c3ccc(O)cc3)C2=O)c1` (centres unmarked) [Compound 153, 2-(2-Hydroxy-1-(3-methoxyphenyl)ethyl)-4-(4-hydroxyphenyl)-6-(1H-pyrazol-4-yl)isoindolin-1-one], the IC50 was 0.019 µM. Work on `CCOc1cccc([C@H](C(=O)OC)N2Cc3ccc(-c4cn[nH]c4)cc3C2=O)c1` [Compound 73] yielded an IC50 of 1.39 µM. Compound `COc1cccc(C(CO)N2Cc3ccc(-c4cn[nH]c4)cc3C2=O)c1` (racemic) [Compound 38, 2-(2-hydroxy-1-(3-methoxyphenyl)ethyl)-6-(1H-pyrazol-4-yl)isoindolin-1-one] has an IC50 of 0.006 µM. `COc1cccc(CN2Cc3cc(F)c(-c4cn[nH]c4)cc3C2=O)c1` [Compound 35, 5-fluoro-2-[(3-methoxyphenyl)methyl]-6-(1H-pyrazol-4-yl)isoindolin-1-one] showed an IC50 of 0.005 µM. `COc1cccc([C@@H](C)N2C(=O)c3cc(-c4cn[nH]c4)ccc3[C@H]2CC(=O)O)c1` (single isomer, unassigned) [Compound 98] showed an IC50 of 0.106 µM. `COc1cccc(CN2C(=O)c3cc(-c4cn[nH]c4)ccc3C23CCCCC3)c1` [Compound 81, 2′-(3-methoxybenzyl)-5′-(1H-pyrazol-4-yl)spiro[cyclohexane-1,1′-isoindolin]-3′-one] gave an IC50 of 0.011 µM. `O=C1c2cc(-c3ccncn3)ccc2CN1Cc1cccc(Oc2ccccc2)c1` [Compound 106] showed an IC50 of 0.419 µM. `O=C1c2cc(-c3cn[nH]c3)ccc2CN1Cc1ccc(F)s1` [Compound 43, 2-((5-Fluorothiophen-2-yl)methyl)-6-(1H-pyrazol-4-yl)isoindolin-1-one] was tested, and the IC50 was 0.088 µM. In the case of `COc1cccc(C(CO)N2Cc3ccc(-c4cn[nH]c4)cc3C2=O)c1` (single isomer, unassigned) [Compound 172], the IC50 was 0.148 µM. For `CNC(=O)c1cc(-c2ccc3c(c2)C(=O)N(Cc2cccc(OC)c2)C3)ccn1` [Compound 37, 4-(2-(3-methoxybenzyl)-3-oxoisoindolin-5-yl)-N-methylpicolinamide], the IC50 was > 20 µM. With `COc1cccc(C(CO)N2Cc3c(cc(-c4cn[nH]c4)cc3-c3cncnc3)C2=O)c1` (centres unmarked) [Compound 158, 2-(2-hydroxy-1-(3-methoxyphenyl)ethyl)-6-(1H-pyrazol-4-yl)-4-(pyrimidin-5-yl)isoindolin-1-one] the IC50 was 0.027 µM. In the case of `CC(C)NC(=O)c1cccc([C@@H](C)N2Cc3ccc(-c4cn[nH]c4)cc3C2=O)c1` [Compound 31], the IC50 was 5.38 µM. `CC(C)Oc1cccc(CN2Cc3ccc(-c4cn[nH]c4)cc3C2=O)c1` [Compound 69, 2-(3-Isopropoxybenzyl)-6-(1H-pyrazol-4-yl)isoindolin-1-one] showed an IC50 of 0.006 µM. `O=C(Oc1cccc(CN2Cc3ccc(-c4cn[nH]c4)cc3C2=O)c1)C1CC1` [Compound 137] gave an IC50 of 0.034 µM. For `COc1cccc(C(CO)N2Cc3ccc(-c4ccnc(N)n4)cc3C2=O)c1` (centres unmarked) [Compound 64, 6-(2-aminopyrimidin-4-yl)-2-(2-hydroxy-1-(3-methoxyphenyl)ethyl)isoindolin-1-one], the IC50 was 0.047 µM.
